Experiment [1] concerns HIV-1 antibodies. Conditions: cited from earlier work; for sensitivity: HIV-1 seropositive samples, literature.
Experiment [2] deals with HIV-2 antibodies. The experiment can be described thus: ELISA, single peptides identifying HIV-2 positive sera. Conditions: 5 tested. In kind it is binding, human. Here is the method:
A preferred convenient and classical technique for the determination of antibodies against AIDS virus using a peptide or a peptide mixture of the present invention is an enzyme-linked immunosorbent assay (ELISA). According to this test a peptide or a peptide mixture of the present invention is adsorbed onto the wells of a microtiter plate. The wells are then treated with sera to be tested. After washing, anti-human IgG labeled with peroxidase is added to the wells. The determination of the peroxidase is performed with a corresponding substrate, e.g. with o-phenylene diamine. Also in this procedure the peroxidase can be exchanged by another label, e.g. by a radioactive or fluorescence label.
The cyclic peptides of the present invention and their mixtures with one or more linear peptides were tested in accordance with the ELISA test described previously against a variety of sera, some of which were confirmed positive and others which were confirmed negative.
TABLE 4 provides the results of single peptides which were individually evaluated in identifying known HIV-2 positive sera.
Each well of the microtiter plate is saturated with 100 μl of a solution containing a peptide or mixture of peptides (5 μg/ml) and left overnight. The wells are emptied and washed twice with a washing buffer (Tris, 0.043M; NaCl, 0.5M;thimerosal, 0.01% w/v; Tween 20, 0.05% v/v; pH 7.4). The wells are then saturated with 0.35 ml of washing buffer for 1 hr. at 37° C. and washed once with the same buffer. Serum samples to be analyzed are diluted with specimen buffer (washing buffer plus casein, 0.05% w/v). The wells are rinsed with washing buffer prior to the addition of the diluted serum sample (0.1 ml). These are left to incubate for 1 hr. at room temperature. The wells are then emptied, washed twice rapidly and then once for two minutes with washing buffer. […] The wells are then emptied and washed twice rapidly with washing buffer and then five times in which the buffer was in contact with the well 2 minutes per washing.
The substrate solution (3,3', 5,5'-tetramethylbenzidine, 8 mg per ml of DMSO) is diluted with 100 volumes 0.1M citrate-acetate buffer, pH 5.6 containing 0.1% v/v of 30% H2 O2 and added to each well (0.1 ml per well). After 10 minutes the contents of each well is treated with 0.1 ml 2N H2 SO4 and the optical density read at 450 nm. All determinations are done in duplicate.

Consider “7-mer peptide: SGKLIC with a cysteine residue added to the N-terminus (605-611), Gnann et al.”, for which the sensitivity in experiment [1] was 48%.
Consider `CC[C@H](C)[C@H](NC(=O)[C@H](C)NC(=O)[C@@H](NC(=O)[C@@H](NC(=O)[C@@H](N)CCCNC(=N)N)C(C)C)[C@@H](C)O)C(=O)N[C@@H](CCC(=O)O)C(=O)N[C@@H](CCCCN)C(=O)N[C@@H](Cc1ccc(O)cc1)C(=O)N[C@@H](CC(C)C)C(=O)N[C@@H](CCC(N)=O)C(=O)N[C@@H](CC(=O)O)C(=O)N[C@@H](CCC(N)=O)C(=O)N[C@@H](C)C(=O)N[C@@H](CCCNC(=N)N)C(=O)N[C@@H](CC(C)C)C(=O)N[C@@H](CC(N)=O)C(=O)N[C@@H](CO)C(=O)N[C@@H](Cc1c[nH]c2ccccc12)C(=O)NCC(=O)N[C@H]1CSSC[C@@H](C(N)=O)NC(=O)[C@H](C(C)C)NC(=O)[C@H](CCC(N)=O)NC(=O)[C@H](CCCNC(=N)N)NC(=O)[C@H](Cc2ccccc2)NC(=O)[C@H](C)NC1=O` [Peptide 146], for which, in experiment [2], the “% Positive Sera correctly Identified” value came out at 100%.
On the same count and under the same terms, with `CC(C)C[C@H](NC(=O)[C@H](CCCNC(=N)N)NC(=O)[C@H](C)NC(=O)[C@H](CCC(N)=O)NC(=O)[C@H](CC(=O)O)NC(=O)[C@@H](N)CCC(N)=O)C(=O)N[C@@H](CC(N)=O)C(=O)N[C@@H](CO)C(=O)N[C@@H](Cc1c[nH]c2ccccc12)C(=O)NCC(=O)N[C@H]1CSSC[C@@H](C(=O)N[C@@H](Cc2c[nH]cn2)C(=O)N[C@H](C(=O)N[C@H](C(=O)N[C@H](C(=O)N2CCC[C@H]2C(=O)N[C@@H](Cc2c[nH]c3ccccc23)C(=O)N[C@H](C(=O)N[C@@H](CC(N)=O)C(=O)N[C@@H](CC(=O)O)C(=O)N[C@@H](CO)C(N)=O)C(C)C)C(C)C)[C@@H](C)O)[C@@H](C)O)NC(=O)[C@H](C(C)C)NC(=O)[C@H](CCC(N)=O)NC(=O)[C@H](CCCNC(=N)N)NC(=O)[C@H](Cc2ccccc2)NC(=O)[C@H](C)NC1=O` [Peptide 147] the figure was 100%; with `CC(=O)N[C@@H](CCC(N)=O)C(=O)N[C@@H](CC(=O)O)C(=O)N[C@@H](CCC(N)=O)C(=O)N[C@@H](C)C(=O)N[C@@H](CCCNC(=N)N)C(=O)N[C@@H](CC(C)C)C(=O)N[C@@H](CC(N)=O)C(=O)N[C@@H](CO)C(=O)N[C@@H](Cc1c[nH]c2ccccc12)C(=O)NCC(=O)N[C@H]1CSSC[C@@H](C(N)=O)NC(=O)[C@H](C(C)C)NC(=O)[C@H](CCC(N)=O)NC(=O)[C@H](CCCNC(=N)N)NC(=O)[C@H](Cc2ccccc2)NC(=O)[C@H](C)NC1=O` [Peptide 200], 100%.
On the same count and under the same terms, the result for `CC(C)[C@@H]1NC(=O)[C@H](CCC(N)=O)NC(=O)[C@H](CCCNC(=N)N)NC(=O)[C@H](Cc2ccccc2)NC(=O)[C@H](C)NC(=O)[C@@H](NC(=O)CN)CSSC[C@@H](C(=O)N[C@@H](Cc2c[nH]cn2)C(=O)N[C@H](C(=O)N[C@H](C(=O)N[C@H](C(=O)N2CCC[C@H]2C(=O)N[C@@H](Cc2c[nH]c3ccccc23)C(=O)N[C@H](C(=O)N[C@@H](CC(N)=O)C(=O)N[C@@H](CC(=O)O)C(=O)N[C@@H](CO)C(=O)O)C(C)C)C(C)C)[C@@H](C)O)[C@@H](C)O)NC1=O` [Peptide 201] reads 100%; that for `CC[C@H](C)[C@H](NC(=O)[C@H](C)NC(=O)[C@@H](NC(=O)[C@@H](NC(=O)[C@@H](N)CCCNC(=N)N)C(C)C)[C@@H](C)O)C(=O)N[C@@H](CCC(=O)O)C(=O)N[C@@H](CCCCN)C(=O)N[C@@H](Cc1ccc(O)cc1)C(=O)N[C@@H](CC(C)C)C(=O)N[C@@H](CCC(N)=O)C(=O)N[C@@H](CC(=O)O)C(=O)N[C@@H](CCC(N)=O)C(=O)N[C@@H](C)C(=O)N[C@@H](CCCNC(=N)N)C(=O)N[C@@H](CC(C)C)C(=O)N[C@@H](CC(N)=O)C(=O)N[C@@H](CO)C(=O)N[C@@H](Cc1c[nH]c2ccccc12)C(=O)NCC(=O)N[C@H]1CSSC[C@@H](C(=O)N[C@@H](Cc2c[nH]cn2)C(=O)N[C@H](C(=O)N[C@H](C(=O)N[C@H](C(=O)N2CCC[C@H]2C(=O)N[C@@H](Cc2c[nH]c3ccccc23)C(=O)N[C@H](C(=O)N[C@@H](CC(N)=O)C(=O)N[C@@H](CC(=O)O)C(=O)N[C@@H](CO)C(=O)O)C(C)C)C(C)C)[C@@H](C)O)[C@@H](C)O)NC(=O)[C@H](C(C)C)NC(=O)[C@H](CCC(N)=O)NC(=O)[C@H](CCCNC(=N)N)NC(=O)[C@H](Cc2ccccc2)NC(=O)[C@H](C)NC1=O` [Peptide 202], 100%; that for `CC[C@H](C)[C@H](NC(=O)[C@H](CCC(=O)O)NC(=O)[C@@H](NC(=O)[C@@H](N)CC(C)C)C(C)C)C(=O)N[C@H](C(=O)N1CCC[C@H]1C(=O)N[C@H](C(=O)NCC(=O)N[C@@H](Cc1ccccc1)C(=O)N[C@@H](C)C(=O)N1CCC[C@H]1C(=O)N[C@H](C(=O)N[C@@H](CCCCN)C(=O)N[C@@H](CCC(=O)O)C(=O)N[C@@H](CCCCN)C(=O)N[C@@H](CCCNC(=N)N)C(=O)N[C@@H](Cc1ccc(O)cc1)C(=O)N[C@@H](CO)C(=O)N[C@@H](CO)C(=O)N[C@@H](C)C(=O)N[C@@H](Cc1c[nH]cn1)C(=O)NCC(=O)N[C@@H](CCCNC(=N)N)C(=O)O)[C@@H](C)O)[C@@H](C)CC)[C@@H](C)O` [Peptide 203], 100%.
Still for that read-out and setting: the result for `CC[C@H](C)[C@H](NC(=O)[C@H](CCC(=O)O)NC(=O)[C@@H](NC(=O)[C@@H](N)CC(C)C)C(C)C)C(=O)N[C@H](C(=O)N1CCC[C@H]1C(=O)N[C@H](C(=O)NCC(=O)N[C@@H](Cc1ccccc1)C(=O)N[C@@H](C)C(=O)N1CCC[C@H]1C(=O)N[C@H](C(=O)N[C@@H](CCCCN)C(=O)N[C@@H](CCC(=O)O)C(=O)N[C@@H](CCCCN)C(=O)N[C@@H](CCCNC(=N)N)C(=O)O)[C@@H](C)O)[C@@H](C)CC)[C@@H](C)O` [Peptide 204] reads 100%.
As for SGKLIC, in experiment [1] (22 HIV-1 positive sera tested, Gnann et al.), the “immunoreactivity with HIV-1 positive sera” value is given as “not immunoreactive”.
As to “SGKLICTTAVPWNAS [short synthetic peptide covering residues 606 to 620 of gp41 (HIV-1), U.S. Ser. No. 120,027]”, the sensitivity in experiment [1] is 89%. In experiment [1] (U.S. Ser. No. 120,027), the “specificity (samples correctly identified)” value is reported as 63/63.

Values taken from patent US6214537A, “Synthetic peptides and mixtures thereof for detecting HIV antibodies” (Biochem Immunosystems, Inc., priority 1988, dated 2001).
